Here are results for five compounds from PMC8522729 (Antimicrobial Agents and Chemotherapy, 2021).

For series [1], the system named is M. tuberculosis Kurono. On the set-up: method as in PMID 32229496. The following applies: chronic ICR mouse model, cited from earlier work.
The subject of series [2] is M. tuberculosis. The following applies: QD, cited from earlier work.
In series [3] the test system is M. tuberculosis Erdman-infected C3HeB/FeJ mice. Briefly: Efficacy in the C3HeB/FeJ mouse tuberculosis model (CFU in lungs and spleens, kill rates). The series is classed as in vivo. Particulars: for dose at which maximal efficacy in spleens was achieved / LME (lowest dose with the maximum effect) in lungs: 8 weeks of treatment, OPC-167832 QD; for dose at which maximal efficacy in spleens was achieved: TBA-7371 BID (not yet achieved); for LME (lowest dose with the maximum effect) in lungs: TBA-7371 BID, PBTZ169 QD; for average lung CFU reduction compared to untreated controls: 5 of 7 days per week; for CFU reduction in spleen: spleens; for CFU reduction in spleen / effect on lung CFU compared to pretreatment control and untreated controls: 4 weeks of treatment, all doses; for effect on lung CFU compared to pretreatment control and untreated controls: P > 0.05.

The test system of series [4] is nonreplicating bacteria in rabbit caseum. Nature of the series: Caseum MBC assay. The series is classed as cell-based, Mycobacterium tuberculosis. The following applies: 7 days.
A short description of series [5]: Plasma, lung and lesion drug levels (LC-MS/MS and LCM-LC-MS/MS).
The conditions of series [6]: C3HeB/FeJ, mouse, in vivo.
For series [7], the system named is M. tuberculosis Erdman. Nature of the series: MIC by broth microdilution (MABA), with and without 4% huSA (serum-shift assay). The following applies: for Serum shift (fold increase): M. tuberculosis Erdman, MIC with 4% huSA vs without; for protein binding by this assay (MIC shift): indicated by 8-fold MIC shift with 4% huSA.
In series [8] the test system is M. tuberculosis H37Rv. The series is described as above. Particulars: MIC with 4% huSA vs without.
The subject of series [9] is M. tuberculosis. On the set-up: method as in PMID 24957839, PMID 24215368, PMID 24874895. The following applies: acute BALB/c mouse model; 100 mg/kg QD; cited from earlier work.
The subject of series [10] is M. tuberculosis. Particulars: chronic BALB/c mouse model, cited from earlier work.
Series [11] deals with M. tuberculosis. Particulars: cited from earlier work.
For series [12] the following is noted: cited from earlier work.
The subject of series [13] is pulmonary pathology of M. tuberculosis-infected C3HeB/FeJ mice. Nature of the series: Pulmonary histopathology (pathologist scoring and LIRA). The series is classed as in vivo. The following applies: 100 mg/kg QD, 8 weeks.
The subject of series [14] is M. tuberculosis H37Rv. More on the design: method as in PMID 19299584. The following applies: cited from earlier work.
The conditions of series [15]: cited from earlier work. This is another data set of the same source.
[16] abbreviates: lungs, 8 weeks, all three OPC-167832 groups, TBA-7371 medium and high dose, PBTZ169 medium and high dose, P < 0.05 Dunnett.
The mark [17] stands for this setting: C3HeB/FeJ, mouse, in vivo, 5 mg/kg.

Molecules are shown by their SMILES. Converted amounts (≈) assume the structure as drawn. Read-outs that look alike come from different tables or passages of the source. Some results are limits rather than exact numbers.

Broadly, the Cmax is the highest concentration seen after dosing. Consider `O=C1CCc2c(OC[C@]3(O)CCN(c4c(F)cc(Cl)cc4F)C[C@H]3O)ccc(F)c2N1` [OPC-167832], for which the “CFU reduction in lungs versus the start of treatment” value in series [1] (5 mg/kg for 4 weeks) is reported as above 1.5 log10 CFU. In addition, the “dose showing bactericidal activity” value in series [1] is recorded as 0.625 mg/kg. Besides, the “MED99 (minimal effective dose giving 2-log reduction in lung bacterial load vs untreated)” value in series [2] is recorded as 5 mg/kg. In [3], the “dose at which maximal efficacy in spleens was achieved” value came to 5 mg/kg, the “LME (lowest dose with the maximum effect) in lungs” value (from here on “LME”) amounted to 5 mg/kg and the “CFU reduction in spleen” value was “dose-dependent CFU reduction”. The “average lung CFU reduction compared to untreated controls” value (from here on “average lung CFU reduction”) in series [3] (8 weeks, 5 and 20 mg/kg QD) came to 3 log10 CFU. Moreover, in series [3] (lungs, 4 weeks, 20 mg/kg QD, P = 0.04 Dunnett), the “efficacy in lungs versus the pretreatment control group” value is listed as “statistically significant efficacy”. In addition, the “lung bacterial load compared to the untreated control group” value in series [3] (lungs, 4 weeks, all three dose groups (1.25, 5, 20 mg/kg QD), P = 0.002 to 0.03 Dunnett) is “statistically significant reduction in lung bacterial load”. The “lung bacterial load compared to the untreated control group” value in series [3] (setting [16]) is recorded as “statistical significant reduction in the lung bacterial load”. Also, in series [4] (Mycobacterium tuberculosis, 168 h, rabbit caseum, read-out: caseum MBC90), the MBC was 500 µg/mL (≈ 1090 µM). The “reduction from treatment start in caseum” value in [4] (highest concentration tested (1 mg/ml), P = 0.0005) was 1 log. In addition, the “drug level in caseous core / cellular-caseum interface at plasma Cmax, fold in excess of the MIC+huSA” value in series [5] (5 mg/kg QD, 2.5 weeks) was “approximately 21 fold”. Also, in [5] (setting [17]), the Cmax at 1 h was 35 ng/g, the concentration at 1 h was 190 ng/g and the concentration at 24 h fell in the range of 34 to 108 ng/g. Further, in series [6] (1 h), the “concentration in caseum (acellular) at T1, fold above the MIC+huSA” value came to 12 fold; the “concentration in caseum at T1, fold in excess of the MIC+huSA” value came out at 20 fold; the “plasma and lung concentration at T1, fold above the MIC+huSA” value is reported as 75-85 fold. For the same compound, in series [7], the “Serum shift (fold increase)” value was 8 fold and the “protein binding by this assay (MIC shift)” value was around 88%.
For the compound `O=[N+]([O-])c1cn2c(n1)OC[C@@H](OCc1ccc(OC(F)(F)F)cc1)C2` [Pretomanid, pretomanid], the “Serum shift (fold increase)” value in [8] and in series [7] was 4 fold each time.
The MIC is the lowest concentration that inhibits growth of the organism. On to `COc1ncnc(Cn2cc(C(=O)NCCO)c3ncc(C)cc32)c1C` [TBA-7371], for which the “MED99 (minimal effective dose giving 2-log reduction in lung bacterial load vs untreated)” value in series [2] was 100 mg/kg. The “CFU reduction in lungs compared to untreated controls” value in [9] is on record as “more than 2 log10 CFU”. In series [3], the “dose at which maximal efficacy in spleens was achieved” value was at least 200 mg/kg, the “LME” value turned out to be 100 mg/kg and the “CFU reduction in spleen” value was “dose-dependent CFU reduction”. Moreover, in series [3] (8 weeks, 100 and 200 mg/kg BID), the “average lung CFU reduction” value came to 1.5 log10 CFU. Moreover, in series [3] (lungs), the “effect on lung CFU compared to pretreatment control and untreated controls” value is “not statistically significant”. The “lung bacterial load compared to the untreated control group” value in series [3] (setting [16]) is recorded as “statistical significant reduction in the lung bacterial load”. In [5] (C3HeB/FeJ, mouse, in vivo, 100 mg/kg), this compound had a Cmax of around 8600 ng/g. In series [10] (100 mg/kg QD), the “CFU reduction in lungs” value is 1.5 log10 CFU. In series [11], the minimal inhibitory concentration (MIC) is 0.64 µg/mL (≈ 1.8 µM).
Consider `O=c1nc(N2CCN(CC3CCCCC3)CC2)sc2c([N+](=O)[O-])cc(C(F)(F)F)cc12` [PBTZ169, macozinone], for which the selectivity index in series [12] was > 10,000. The “MED99 (minimal effective dose giving 2-log reduction in lung bacterial load vs untreated)” value in series [2] (published or reported mouse infection studies, no reference given) was 50 mg/kg. In series [3], the “LME” value is listed as 50 mg/kg and the “CFU reduction in spleen” value is “no statistically significant CFU reduction”. Also, the “average lung CFU reduction” value in series [3] (8 weeks, 50 and 100 mg/kg QD) is 1.5 log10 CFU. Further, the “effect on lung CFU compared to pretreatment control and untreated controls” value in [3] (lungs) was “not statistically significant”. For the same compound, the “lung bacterial load compared to the untreated control group” value in series [3] (setting [16]) was “statistical significant reduction in the lung bacterial load”. Besides, in series [5] (50 mg/kg QD, 2.5 weeks), the “Cmax in the cellular-caseum interface and caseum, fold lower than plasma or whole lung Cmax” value came to 10 fold. The “concentration in plasma and lungs at T1 (Cmax)” value in series [5] (50 mg/kg QD, 2.5 weeks, T1 15 min) was “around 1 μg/ml or μg/g”. Besides, the “CFU reduction in lungs versus untreated controls” value in [10] (after 4 weeks of treatment) was 1 log10 CFU. In [10], the “additional CFU reduction in lungs versus BTZ043” value is recorded as 0.5 log10 CFU and the “additional CFU reduction in spleens versus BTZ043” value is 1 log10 CFU. Further, the “MIC fold lower versus BTZ043” value in series [11] was 3 fold. The “plasma and lung concentration at T1, fold above the MIC+huSA” value in series [6] (15 min) is listed as 11-20 fold. Further, in series [7], the “Serum shift (fold increase)” value is recorded as 8 fold and the “protein binding by this assay (MIC shift)” value was around 88%. For the same compound, in series [13], the “type III cellular lesions, lung involvement (LIRA)” value is listed as “more than 35%” and the “type III lesion lung involvement relative to untreated control group (LIRA)” value is “more than 2 fold”.
With `C[C@H]1COC2(CCN(c3nc(=O)c4cc(C(F)(F)F)cc([N+](=O)[O-])c4s3)CC2)O1` [BTZ043], the selectivity index in series [12] is > 10,000. In addition, in series [14], the MIC is 0.001 µg/mL (≈ 0.00232 µM). Further, the plasma protein binding in series [15] is above 99.8%.
